Experiment: Transport in Caco-2 cells
Type: in vitro ADME, human
Conditions: human
Description: The culture medium was changed every other day for the first 7 days and then daily for the next 14 days. […] Prior to the transport experiments, the cell monolayers were washed three times with HBSS at 37°C. […] At the same time, the corresponding opposite side was filled with medium as the receiving chamber. After incubation for 30, 60, 90, and 120 min, 250-μl aliquots of the medium was taken from the receiving chamber at each time point, and prepared for analysis by HPLC–MS/MS. […] where (ΔQ/Δt) is the linear slope of the drug concentration in the receptor chamber over time, A represents the surface area of the membrane (1.12 cm^2), and C0 is the initial concentration of drug in the donor chamber. The efflux ratio (ERpermeability) for BL to AP and AP to BL transport was defined by the following equation: […] where Papp (BL–AP) and Papp (AP–BL) are the apparent permeability of drugs from the basolateral (BL) to apical (AP) and AP to BL sides of the monolayer, respectively.

[1] = Caco-2, BBR 10 μM in presence of TB-2 (5 μM), n = 3

Q: For `COc1ccc2cc3[n+](cc2c1OC)CCc1cc2c(cc1-3)OCO2` [BBR, berberine], which efflux ratio at 10 μM (Caco-2, Caco-2, BBR 10 μM in presence of TB-2 (5 μM), read-out: ERpermeability (efflux ratio)) is on record?
A: 31.1

Q: What about the Papp A→B at 10 μM [1] of the same compound?
A: 0.048 ± 0.014 ×10⁻⁶ cm/s

Q: And the Papp B→A at 10 μM [1]?
A: 1.5 ± 0.499 ×10⁻⁶ cm/s

— article PMC6353801, “Enhanced Anti-diabetic Effect of Berberine Combined With Timosaponin B2 in Goto-Kakizaki Rats, Associated With Increased Variety and Exposure of Effective Substances Through Intestinal Absorption” (Frontiers in Pharmacology, 2019)
